Measurements from US5525617A, “Fibrinogen receptor antagonists” (Merck & Co., Inc., priority 1994, dated 1996).

Test system: gel-filtered human platelets
Test: in vitro ADP-stimulated platelet aggregation (inhibition)
Format: cell-based
Settings: gel-filtered human platelets 2×10^8 per ml, fibrinogen 100 micrograms per ml, Ca^2+ 1 mM, 10 mM ADP, 37° C., Chronolog aggregometer
Protocol: Platelet aggregation is measured at 37° C. in a Chronolog aggregometer. The reaction mixture contains gel-filtered human platelets (2×10^8 per ml), fibrinogen (100 micrograms per ml (ug/ml)), Ca^2+ (1 mM), and the compound to be tested. The aggregation is initiated by adding […] ADP 1 minute after the other components are added. The reaction is then allowed to proceed for at least 2 minutes. The extent of inhibition of aggregation is expressed as the percentage of the rate of aggregation observed in the absence of inhibitor. The IC50 is the dose of a particular compound inhibiting aggregation by 50% relative to a control lacking the compound.
In addition to the following preparative procedures, several examples of in vitro bioactivity of compounds within the scope of the present invention are indicated. To illustrate, one test which is used to evaluate fibrinogen receptor antagonist activity is based on evaluation of inhibition of ADP-stimulated platelets. Aggregation requires that fibrinogen bind to and occupy the platelet fibrinogen receptor site. Inhibitors of fibrinogen binding inhibit aggregation. In the ADP-stimulated platelet aggregation assay used to determine inhibition associated with the compounds claimed in the instant invention, human platelets are isolated from fresh blood, collected into acid citrate/dextrose by differential centrifugation followed by gel filtration on Sepharose 2B in divalent ion-free Tyrode's buffer (pH 7.4) containing 2% bovine serum albumin.

IC50	Structure (SMILES)
2.3 µM	O=C(O)CCNC(=O)c1ccc2c(c1)C(=O)C(CCC1CCNCC1)C2 (stereo not drawn)
0.009 µM	CCCCS(=O)(=O)N[C@@H](CNC(=O)c1ccc2c(c1)C(=O)C(CCC1CCNCC1)C2)C(=O)O (stereo partly drawn)
0.014 µM	CCCCS(=O)(=O)N[C@@H](CNC(=O)c1ccc2c(c1)CC(CCC1CCNCC1)C2)C(=O)O (stereo partly drawn)
